Tests used:
[1] = target: T1, CDK1 (Homo sapiens, UniProt P06493); assay: Binding assay (FRET, LanthaScreen Eu, Tracer236) for CDK1; details: for IC50: read-out: CDK1 IC50 (enzyme binding assay)
T1 construct: His; purchased Invitrogen PR4768C
Method: (§1) Inhibition activity of compound to CDK7 kinase was tested in a binding assay which was applied to the FRET (fluorescence resonance energy transfer) principle from the europium (Eu) donor fluorophore to the acceptor fluorophore on the kinase tracer. Test compounds were made to 1.125 mM of compound solution, and then this compound solution 4-fold serial diluted in 8 steps using an automated liquid handler (JANUS™, PerkinElmer). 80 nL/well of each diluted compound solution was added into the 384-well plate (Greiner, Cat #784075) first and 7.5 ul/well of working solution [5 nM of CDK7/CycH/MNAT1 (Invitrogen, Cat #PR6749B), 4 nM of Biotin anti-His Tag Antibody (Invitrogen, Cat #PV6090), and LanthaScreen® Eu-Streptavidin (Invitrogen, Cat #PV6025)] was added. After mixing the solution well, the same volume with the working solution of Tracer236 (Invitrogen, Cat #PV5592) was added into each well in the plate. The plate was incubated for 60 minutes at room temperature and then all the fluorescence were measured using Envision leader (Perkin Elmer, USA) [Laser as excitation light; […] as the first and the second emission filter]. Data was analysed using XL Fit software.
(§2) All of the synthesized compounds were screened in the above-mentioned assay procedure. To identify the inhibition activity of compounds for other CDKs including CDK1 (Invitrogen, Cat #PR4768C), CDK2 (Invitrogen, Cat #PR4448B) and CDK5 (Invitrogen, Cat #PR8543B) were tested using the same protocol under reasonable concentration of Tracer236 and kinases for each assay. The formula for the assay buffer summarized in below table.

[2] = target: T2, CDK2 (Homo sapiens, UniProt P24941); assay: Binding assay (FRET, LanthaScreen Eu, Tracer236) for CDK2; details: for IC50: read-out: CDK2 IC50 (enzyme binding assay)
T2 construct: His; purchased Invitrogen PR4448B
Method: as §1, §2

[3] = target: T3, CDK5 (Homo sapiens, UniProt Q00535); assay: Binding assay (FRET, LanthaScreen Eu, Tracer236) for CDK5; details: for IC50: read-out: CDK5 IC50 (enzyme binding assay)
T3 construct: His; purchased Invitrogen PR8543B
Method: as §1, §2

[4] = target: T4, CDK7/CycH/MNAT1 (Homo sapiens, UniProt P50613); assay: Binding assay (FRET, LanthaScreen Eu, Tracer236) for CDK7; details: read-out: CDK7 IC50 (enzyme binding assay)
T4 construct: His; purchased Invitrogen PR6749B
Method: as §1, §2

[5] = target: T5, CDK7 protein (Homo sapiens, UniProt P50613); assay: Western blot assay for CDK7 protein degradation in A2780 cells; assay type: cell-based; details: 24 hours; for DC50: read-out: Compound concentration that caused 50% CDK7 protein degradation in A2780 cells (DC50);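 on all read-outs here: A is DC50 up to 100 nM B is 100 to 1000 nM C is above 1000 nM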
T5 construct: To verify endogenous CDK7 protein degradation; endogenous in cells; host or cells: A2780 (ECACC 93112519)
Method: Human ovarian cancer cell line, A2780 (Cat #93112519) was obtained from ECACC. Cells were grown in RPMI-1640 media (Invitrogen, Cat #22400105) supplemented with 10% FBS (Hyclone, Cat #SH30084.03) and 1% penicillin/streptomycin (Hyclone, Cat #SV30010) and cultured at 37° C., 5% Co2 in a humidified chamber. All cell lines were routinely tested for mycoplasma.
To verify endogenous CDK7 protein degradation upon treatment of CDK7-specific degrader, the western blot assay was conducted a 24 hours' time period. 6×10^5 cells/well of A2780 cells were plated in 6-well plate. After 24 hours, the cells were treated with various concentrations of the compound corresponding range. DMSO solvent without compound served as a control and final DMSO concentration was not to exceed 0.1% of total volume. After 24 hours of incubation at 37° C., 5% Co2 incubator, cells were collected and lysed with 60 ul of lysis buffer. Collected lysates were incubated for 30 min on ice and collect supernatant through centrifugation at 12,000 rpm for 10 min at 4° C. The protein in lysates were quantified with BCA protein quantification kit (Pierce, Cat #23227) following manufacture's protocol. Cell lysates were diluted into 1 ug/ul of concentration with lysis buffer. 20 ug of protein was loaded to each well of 4˜12% Bis-Tris gel (Invitrogen, Cat #NP0336BOX) with MOPS running buffer (Invitrogen, Cat #NP0001). The proteins were transferred from gel to membrane and incubated with primary antibody as followed at 4° C. overnight; CDK7 (CST, Cat #2090S) and β-actin (Santa Cruz, Cat #sc-47778) 1:20,000. The signals were developed and acquired with ImageQuant™ LAS 4000.

T3 sequence (Q00535 whole entry): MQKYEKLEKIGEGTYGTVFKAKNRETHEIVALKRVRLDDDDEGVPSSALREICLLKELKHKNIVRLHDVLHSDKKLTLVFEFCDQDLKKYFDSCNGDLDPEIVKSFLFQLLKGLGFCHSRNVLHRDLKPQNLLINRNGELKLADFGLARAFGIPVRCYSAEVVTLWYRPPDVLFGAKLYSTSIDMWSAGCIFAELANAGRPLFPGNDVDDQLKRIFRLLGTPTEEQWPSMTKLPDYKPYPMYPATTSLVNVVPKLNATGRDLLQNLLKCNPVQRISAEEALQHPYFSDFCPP
T3 sequence (Q15078 99-307 partner limits assumed): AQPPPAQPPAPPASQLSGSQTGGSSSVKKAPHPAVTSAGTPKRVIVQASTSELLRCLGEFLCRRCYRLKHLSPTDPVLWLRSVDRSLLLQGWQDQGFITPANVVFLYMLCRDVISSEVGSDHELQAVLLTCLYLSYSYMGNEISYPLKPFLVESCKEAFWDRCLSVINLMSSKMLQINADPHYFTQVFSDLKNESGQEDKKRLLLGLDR
T1 sequence (P06493 whole entry): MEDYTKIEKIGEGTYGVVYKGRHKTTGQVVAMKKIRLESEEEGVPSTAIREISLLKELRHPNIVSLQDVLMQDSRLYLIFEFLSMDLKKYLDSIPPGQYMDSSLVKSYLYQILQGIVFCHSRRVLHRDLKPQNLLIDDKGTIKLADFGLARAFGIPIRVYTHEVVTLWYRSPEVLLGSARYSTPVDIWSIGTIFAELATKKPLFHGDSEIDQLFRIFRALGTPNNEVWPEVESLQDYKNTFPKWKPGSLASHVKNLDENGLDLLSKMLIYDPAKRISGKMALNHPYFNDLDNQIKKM
T1 sequence (P14635 whole entry partner): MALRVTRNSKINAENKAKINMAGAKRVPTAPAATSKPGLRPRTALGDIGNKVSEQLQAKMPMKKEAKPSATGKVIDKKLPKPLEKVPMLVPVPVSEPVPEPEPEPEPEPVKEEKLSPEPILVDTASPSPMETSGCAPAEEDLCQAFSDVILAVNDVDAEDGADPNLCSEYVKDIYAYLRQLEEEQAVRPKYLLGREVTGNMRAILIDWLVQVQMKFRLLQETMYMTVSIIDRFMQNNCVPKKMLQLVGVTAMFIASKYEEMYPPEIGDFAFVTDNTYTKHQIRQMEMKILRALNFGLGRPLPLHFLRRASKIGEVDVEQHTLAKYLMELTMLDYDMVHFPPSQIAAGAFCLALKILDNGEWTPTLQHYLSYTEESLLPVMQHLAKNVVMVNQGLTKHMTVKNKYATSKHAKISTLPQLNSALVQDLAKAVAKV
T5 sequence (P50613 whole entry): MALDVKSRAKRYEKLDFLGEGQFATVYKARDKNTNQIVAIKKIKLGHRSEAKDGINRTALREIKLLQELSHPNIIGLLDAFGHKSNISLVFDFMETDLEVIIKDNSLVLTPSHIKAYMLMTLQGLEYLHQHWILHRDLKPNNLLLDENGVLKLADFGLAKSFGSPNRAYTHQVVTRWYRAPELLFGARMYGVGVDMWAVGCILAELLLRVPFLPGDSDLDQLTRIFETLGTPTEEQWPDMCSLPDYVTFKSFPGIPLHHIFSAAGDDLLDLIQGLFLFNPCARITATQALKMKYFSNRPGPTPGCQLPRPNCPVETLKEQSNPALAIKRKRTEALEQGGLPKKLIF
T4 sequence (P50613 whole entry): as above
T4 sequence (P51946 whole entry partner): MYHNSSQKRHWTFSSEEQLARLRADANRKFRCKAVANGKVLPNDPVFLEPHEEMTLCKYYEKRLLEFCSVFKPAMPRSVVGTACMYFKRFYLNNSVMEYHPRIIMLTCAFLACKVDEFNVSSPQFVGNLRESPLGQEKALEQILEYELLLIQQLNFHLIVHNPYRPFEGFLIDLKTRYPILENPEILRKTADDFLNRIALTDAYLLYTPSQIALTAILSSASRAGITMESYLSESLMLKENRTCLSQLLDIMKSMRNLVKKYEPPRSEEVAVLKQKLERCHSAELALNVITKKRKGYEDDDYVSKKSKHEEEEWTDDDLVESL
T4 sequence (P51948 whole entry partner): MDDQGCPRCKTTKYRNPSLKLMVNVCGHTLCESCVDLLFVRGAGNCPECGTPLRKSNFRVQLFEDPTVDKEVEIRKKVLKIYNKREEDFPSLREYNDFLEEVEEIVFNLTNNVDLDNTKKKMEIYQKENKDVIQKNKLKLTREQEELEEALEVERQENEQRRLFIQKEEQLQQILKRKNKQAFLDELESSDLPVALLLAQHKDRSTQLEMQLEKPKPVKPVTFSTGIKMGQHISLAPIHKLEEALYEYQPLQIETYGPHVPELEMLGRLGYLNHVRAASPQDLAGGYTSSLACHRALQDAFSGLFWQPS

Row | Structure (SMILES) | CDK1/CDK7: Selectivity of CDK7 inhibition over CDK1 inhibition [1] | IC50 [1] [nM] | CDK2/CDK7: Selectivity of CDK7 inhibition over CDK2 inhibition [2] | IC50 [2] [nM] | CDK5/CDK7: Selectivity of CDK7 inhibition over CDK5 inhibition [3] | IC50 [3] [nM] | IC50 [4] [nM] | DC50 [5] [nM] | Compound concentration that caused 50% CDK7 protein degradation in A2780 cells (DC50, nM) [5]
1 | CC(C)c1cnn2c(NCc3ccccc3-c3nccc4cc(NCC5CCN(CC6CCN(c7ccc8c(c7)C(=O)N(C7CCC(=O)NC7=O)C8=O)CC6)CC5)ccc34)nc(N[C@@H]3CCCNC3)nc12 (stereo partly shown) [Compound 32] | A (A indicates [fold] > 500) | > 1000 | A (A indicates [fold] > 500) | > 1000 | B (B indicates 50 < [fold] ≤ 500) | > 1000 | ≤ 100 | ≤ 100 | 
2 | Cc1ncsc1-c1ccc([C@H](C)NC(=O)[C@@H]2C[C@@H](O)CN2C(=O)[C@@H](NC(=O)CCOCCOCCOCCNc2ccc3c(-c4ccccc4CNc4nc(O[C@@H]5CCCNC5)nc5c(C(C)C)cnn45)nccc3c2)C(C)(C)C)cc1 [Compound 28] | A (A indicates [fold] > 500) | > 1000 | A (A indicates [fold] > 500) | > 1000 | A (A indicates [fold] > 500) | > 1000 | ≤ 100 | ≤ 100 | 
3 | Cc1ncsc1-c1ccc(CNC(=O)[C@@H]2C[C@@H](O)CN2C(=O)[C@@H](NC(=O)C2(F)CC2)C(C)(C)C)c(OCCOCCNc2ccc3c(-c4ccccc4CNc4nc(O[C@@H]5CCCNC5)nc5c(C(C)C)cnn45)nccc3c2)c1 [Compound 20] | A (A indicates [fold] > 500) | > 1000 | A (A indicates [fold] > 500) | > 1000 | A (A indicates [fold] > 500) | > 1000 | ≤ 100 | ≤ 100 | 
4 | Cc1cc([C@@H](C(=O)N2C[C@H](O)C[C@H]2C(=O)NCc2ccc(-c3scnc3C)cc2OCCOCCOCCNc2ccc3c(-c4ccccc4CNc4nc(O[C@@H]5CCCNC5)nc5c(C(C)C)cnn45)nccc3c2)C(C)C)on1 [Compound 26] | A (A indicates [fold] > 500) | > 1000 | A (A indicates [fold] > 500) | > 1000 | A (A indicates [fold] > 500) | > 1000 | ≤ 100 | > 1000 | 
5 | CC(C)c1cnn2c(NCc3ccccc3-c3nccc4cc(NCCOCCOCCNC(=O)CNc5ccc6c(c5)CN(C5CCC(=O)NC5=O)C6=O)ccc34)nc(O[C@@H]3CCCNC3)nc12 (stereo partly shown) [Compound 16] | A (A indicates [fold] > 500) | > 1000 | A (A indicates [fold] > 500) | > 1000 | A (A indicates [fold] > 500) | > 1000 | ≤ 100 | 100 to 1000 | B or A
6 | Cc1ncsc1-c1ccc(CNC(=O)[C@@H]2C[C@@H](O)CN2C(=O)[C@@H](NC(=O)C2(F)CC2)C(C)(C)C)c(OCCOCCOCCOCCOCCNc2ccc3c(-c4ccccc4CNc4nc(O[C@@H]5CCCNC5)nc5c(C(C)C)cnn45)nccc3c2)c1 [Compound 21] | A (A indicates [fold] > 500) | > 1000 | A (A indicates [fold] > 500) | > 1000 | A (A indicates [fold] > 500) | > 1000 | ≤ 100 | ≤ 100 | 
7 | CNCC(=O)N[C@H](C(=O)N1C[C@@H](Oc2cccc(OCCOCCOCCNc3ccc4c(-c5ccccc5CNc5nc(O[C@@H]6CCCNC6)nc6c(C(C)C)cnn56)nccc4c3)c2)C[C@H]1C(=O)N[C@@H]1CCCc2ccccc21)C1CCCCC1 [Compound 12] | A (A indicates [fold] > 500) | > 1000 | A (A indicates [fold] > 500) | > 1000 | A (A indicates [fold] > 500) | > 1000 | ≤ 100 | > 1000 | 
8 | Cc1ncsc1-c1ccc([C@H](C)NC(=O)[C@@H]2C[C@@H](O)CN2C(=O)[C@@H](NC(=O)CCOCCOCCNc2ccc3c(-c4ccccc4CNc4nc(O[C@@H]5CCCNC5)nc5c(C(C)C)cnn45)nccc3c2)C(C)(C)C)cc1 [Compound 17] | A (A indicates [fold] > 500) | > 1000 | A (A indicates [fold] > 500) | > 1000 | A (A indicates [fold] > 500) | > 1000 | ≤ 100 | ≤ 100 | 
9 | Cc1cc([C@H](C(=O)N2C[C@H](O)C[C@H]2C(=O)NCc2ccc(-c3scnc3C)cc2OCCOCCOCCNc2ccc3c(-c4ccccc4CNc4nc(O[C@@H]5CCCNC5)nc5c(C(C)C)cnn45)nccc3c2)C(C)C)on1 [Compound 27] | B (B indicates 50 < [fold] ≤ 500) | > 1000 | B (B indicates 50 < [fold] ≤ 500) | > 1000 | B (B indicates 50 < [fold] ≤ 500) | > 1000 | 100 to 1000 | ≤ 100 | 
10 | CC(C)c1cnn2c(NCc3ccccc3-c3nccc4cc(NCC5CCN(CC6CCN(c7ccc8c(c7)C(=O)N(C7CCC(=O)NC7=O)C8=O)CC6)CC5)ccc34)nc(O[C@@H]3CCCNC3)nc12 (stereo partly shown) [Compound 30] | A (A indicates [fold] > 500) | > 1000 | B (B indicates 50 < [fold] ≤ 500) | > 1000 | B (B indicates 50 < [fold] ≤ 500) | > 1000 | ≤ 100 | ≤ 100 | 
11 | Cc1ncsc1-c1ccc(CNC(=O)[C@@H]2C[C@@H](O)CN2C(=O)[C@@H](NC(=O)C2(F)CC2)C(C)(C)C)c(OCCOCCOCCOCCNc2ccc3c(-c4ccccc4CNc4nc(O[C@@H]5CCCNC5)nc5c(C(C)C)cnn45)nccc3c2)c1 [Compound 19] | A (A indicates [fold] > 500) | > 1000 | A (A indicates [fold] > 500) | > 1000 | A (A indicates [fold] > 500) | > 1000 | ≤ 100 | ≤ 100 | 
12 | Cc1cc(C(C(=O)N2C[C@H](O)C[C@H]2C(=O)NCc2ccc(-c3scnc3C)cc2OCCOCCOCCNc2ccc3c(-c4ccccc4CNc4nc(O[C@@H]5CCCNC5)nc5c(C(C)C)cnn45)nccc3c2)C(C)C)on1 (stereo partly shown) [Compound 24] | A (A indicates [fold] > 500) | > 1000 | A (A indicates [fold] > 500) | > 1000 | A (A indicates [fold] > 500) | > 1000 | ≤ 100 | ≤ 100 | 
